Experimental data taken from paper PMC12655744, “From Bench to Bioactivity: An Integrated Medicinal Development Based on Kinetic and Simulation Assessment of Pyrazolone-Oxadiazole Coupled Benzamide as Promising Inhibitors of Diabetes Mellitus” (Pharmaceuticals, 2025).

Columns and labels:
Type in all cases: biochemical
alpha-amylase = assay: Alpha-amylase activity assay (starch/DNS, 540 nm); conditions: mean ± SEM; read-out: IC50 = α-amylase µM ± SEM
Experimental: % inhibition = (Abs control − Abs sample) × 100
S.3 Alpha-Amylase Activity Assay:
The inhibitory potential of α-Amylase enzyme was evaluated through the standard methodology. A test tube containing (250 µL) of the compound being tested at various concentrations (50–250 µg/mL), (250 µL) of [1% (w/v)] starch solution, and (250 µL) of (1U/mL) alpha-amylase solution was prepared. Post-incubation at 20ᵒC for 3 min, the en-zymatic process was halted by adding (500 µL) of dinitro salicylic acid (color Reagent).
Following this, (250 µL) of α-amylase was immediately introduced after heating the mix-ture in hot water. The mixture was subsequently subjected to heating at 85 ᵒC for duration of 15 min, followed by a 5-min incubation period at room temperature. (4500 µL) of dis-tilled water was added, resulting in a final volume of (6000 µL). Spectrophotometric anal-ysis at 540 nm was conducted to determine absorbance. A control sample devoid of the […]
equation is used for calculation. […]
(§1) Radius of 12 Å around the Montbretin A binding site was defined for enzyme active site. Accomplishment of docking calculations was achieved using Chem PLP scoring function.
(§2) The geometric parameters and energies were computed by density functional theory at the B3LYP/CEP-631G level of theory, using the […] 98W package of the pro- […]
(§3) grams, on geometries that were optimized at CEP-631G basis set.

alpha-glucosidase = assay: Alpha-glucosidase inhibition assay (absorbance 405 nm); conditions: mean ± SEM; read-out: IC50 = α-glucosidase µM ± SEM
Experimental: 100 µL. The reaction was […] by adding 100 µL of sodium carbonate (200 mM). The absorbance at 405 nm was measured using a microplate reader. This experimental proce-dure was conducted in triplicate, and a control group without the tested compound was included for comparison. […] The percentage […]
inhibition was calculated using the following equation, where “Abs” represents absorb- […]
% inhibition = (Abs control − Abs sample) × 100 […]
as §1, §2, §3

diabetes enzymes = assay: Enzyme kinetic studies (mode of inhibition); conditions: Figure 8
Text: Enzyme kinetics studies provide the most vital information for how drugs work against the disease, such as binding of the inhibitor with its target, and the concentration required to achieve the desired effects. This study explains that the amount of the drug will be affected, slowing down the biological process. The different patterns for slowing down a process are obtained in the form of curves or slopes. This also provides how various forms of inhibitors or derivatives cause the reaction kinetics to slow in unique ways by adding more inhibitors. […] The substitution of unique functional groups in various sites of the phenyl ring might be responsible for its remarkable efficiency. The graphical curves in Figure 8 show the direct competition of the analog against the substrate for the same spot on the enzyme. […]
100 µL. […] The absorbance at 405 nm was measured using a microplate reader. […] The percentage inhibition was calculated using the following equation, where “Abs” represents absorb- […]
The inhibitory potential of α-Amylase enzyme was evaluated through the standard methodology. […]
Following this, (250 µL) of α-amylase was immediately introduced after heating the mix-ture in hot water. […] Spectrophotometric anal-ysis at 540 nm was conducted to determine absorbance. […]

Compound	IC50 (alpha-amylase) [µM]	IC50 (alpha-glucosidase) [µM]	Mode of inhibition (diabetes enzymes)
O=C1C=C(Nc2nnc(NC(=O)c3c(O)cc(O)cc3O)o2)N=N1 [Compound 3]	3.2 ± 0.2	3.6 ± 0.1	competitive inhibitor
Cc1ccc(Cl)c(C(=O)Nc2nnc(NC3=CC(=O)N=N3)o2)c1 [Compound 8]	11.7 ± 0.2	12.1 ± 0.1	–
O=C1C=C(Nc2nnc(NC(=O)c3ccc(Br)cc3)o2)N=N1 [Compound 9]	15.3 ± 0.1	16.1 ± 0.2	–
